Reference: patent US11260060B2, “Methods and formulations for treatment of and/or protection against acute liver failure and other hepatotoxic conditions” (EGETIS THERAPEUTICS AB, priority 2016, dated 2022)

Tests used:
[1] = system: acetaminophen-induced ALF in male B6C3F1 mice; experiment: Acetaminophen-induced ALF mouse model, ALAT at 12 hours; type: in vivo; settings: NAC 30-300 mg/kg 1 hour post 300 mg/kg i.p. acetaminophen, FIG. 7
Description: In each experiment, an i.p. injection of 300 mg/kg acetaminophen was made to male B6C3F1 mice to cause acetaminophen-induced ALF. In a first experiment, a 300 mg/kg dosage of NAC was administered 1-6 hours after acetaminophen administration. In a second experiment, NAC was administered in a dosage of 30-300 mg/kg NAC 1 hour after acetaminophen administration. In a third experiment, a dosage of 0.3-10 mg/kg calmangafodipir (CaM) was administered 6 hours post acetaminophen administration. In each experiment, ALAT was measured 12 hours following the i.p. injection of 300 mg/kg acetaminophen. FIGS. 6 to 8 show ALF response to administration of NAC and CaM, as detected by monitoring ALAT. […] FIG. 7 indicates the NAC dose-response of NAC administration of 30-300 mg/kg NAC 1 hour post acetaminophen administration. Mean±SEM ALAT levels at 12 hours following i.p. injection of 300 mg/kg acetaminophen in male B6C3F1 mice (n=4-11 per bar) are shown. […] Median±interquartile ALAT levels at 12 hours following i.p. injection of acetaminophen in male B6C3F1 mice (n=4-16 per bar) are shown. Due to some outlier values, and variability from the two experiments, both of which are not unexpected in such model system studies, the data points are plotted individually as well as the median values±inter-quartile range.

[2] = Forced temperature degradation of a NAC/CaM mixture at 70° C. for 6 hours; type: physicochemical; settings: NAC/CaM mixture in deionised water
Text: This Example describes short and long term stability studies involving mixtures of Calmangafodipir and NAC. Each mixture was formed by adding CaM (in the form of a trisodium salt powder) and NAC to deionised water and mixing on a Vortex shaker. The solution was then transferred to an amber vial. In these studies, typically no additives or stabilizers were used. Standard degradation studies undertaken at short term used the known method of “forced” temperature degradation by storing solutions at 70° C. for 6 hours (to indicate general longer-term storage performance). Samples were withdrawn at specified time points and analyzed by standard spectroscopic methods for N-acetylcysteine (NAC), Calmangafodipir (CaM) and Calmangafodipir-related substances.

[3] = system: acetaminophen-induced ALF in male B6C3F1 mice; experiment: Animal deaths in acetaminophen-induced ALF mice within 12 hour sampling period; type: in vivo; settings: within 12 hours after APAP 300 mg/kg i.p., i.v. treatment 1-6 hours post APAP, pooled doses
Text: This Example studied the pharmaceutical effects of individual and combined therapies on animal deaths and involved male B6C3F1 mice. Even though serum enzyme activity studies are strongly indicative of liver failure or protection, it is also important to consider other data such as that related to subject animal deaths (%) as a function of the pharmacological treatment. The experiments of this Example studied the pharmaceutical effects of individual and combined therapies on animal deaths in male B6C3F1 mice. The mice were fasted for 8-10 hours and ALF was induced with 300 mg/kg acetaminophen (APAP), i.p., with treatment as specified in the following test groups: • APAP control (n=81, APAP 300 mg/kg i.p.), • NAC (n=53, 30-300 mg/kg i.v., 1-6 hours post APAP), • CaM (n=97, 0.3-10 mg/kg i.v., 1-6 hours post APAP), • CaDPDP (n=10, 3-10 mg/kg i.v., 6 hours post APAP), and • NAC/CaM (n=28, NAC 300 mg/kg, combined with 0.3-10 mg/kg CaM i.v., 2.5-6 hours post APAP).

CC(=O)N[C@@H](CS)C(=O)O [NAC, N-acetylcysteine]
NAC dose-response of ALAT levels [1]: No clear dose-response could be detected | concentration of NAC during forced degradation [2]: remained constant | Deaths, % [3]: 8% | Deaths, no. [3]: 4

calmangafodipir [CaM]
decrease in CaM concentration during forced degradation [2]: about 1 % per hour | Deaths, % [3]: 8% | Deaths, no. [3]: 8 | Deaths, % ([3]; listed as calmangafodipir): 8%
